Results published in ChEMBL document CHEMBL2218064, “Structure-activity relationship data for chemical series of antagonists of the P2X7 receptor (Supplementary Bioactivity Data for publication CHEMBL1157114)”.

biological target: T1, P2X purinoceptor 7 (Homo sapiens, UniProt Q99572); test: SUPPLEMENTARY: Inhibition of human P2X7 receptor assessed as inhibition of ethidium bromide accumulation. Same assay as CHEMBL1103860
T1 sequence (Q99572 whole entry): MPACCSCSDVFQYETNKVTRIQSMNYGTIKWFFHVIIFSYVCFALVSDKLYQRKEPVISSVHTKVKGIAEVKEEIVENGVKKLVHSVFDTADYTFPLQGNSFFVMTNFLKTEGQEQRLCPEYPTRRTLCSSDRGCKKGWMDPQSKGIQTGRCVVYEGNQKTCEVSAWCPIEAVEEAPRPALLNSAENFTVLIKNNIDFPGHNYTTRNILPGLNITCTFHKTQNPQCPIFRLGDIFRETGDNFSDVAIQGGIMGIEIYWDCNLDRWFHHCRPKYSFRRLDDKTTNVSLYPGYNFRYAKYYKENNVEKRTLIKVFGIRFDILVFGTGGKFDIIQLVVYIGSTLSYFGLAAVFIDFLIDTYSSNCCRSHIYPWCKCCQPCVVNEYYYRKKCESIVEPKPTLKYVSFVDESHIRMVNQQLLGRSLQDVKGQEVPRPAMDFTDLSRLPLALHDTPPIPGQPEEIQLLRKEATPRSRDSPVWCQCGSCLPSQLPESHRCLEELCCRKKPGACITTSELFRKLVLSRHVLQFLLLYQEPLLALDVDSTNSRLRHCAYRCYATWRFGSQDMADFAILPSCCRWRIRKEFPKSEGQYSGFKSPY

IC50	Compound
501 nM	Cc1nn(-c2ccccc2)c(C)c1CC(=O)NCc1cc(F)ccc1C(F)(F)F
1.58 nM	Cc1cccc(C)c1N1CCN(Cc2ccc(Cl)cc2Cl)C(=O)C1=O
200 nM	CCN(CC)CCn1nc(C)c(CC(=O)NCc2ccc(F)cc2Cl)c1C
251 nM	Cc1nn(CCN2CCOCC2)c(C)c1CC(=O)NCc1ccc(F)cc1Cl
20 nM	O=C(c1ccc(F)c(Cl)c1)N1CCn2c(nnc2-c2cnccn2)C1
79.4 nM	Cc1cc(F)cc(C)c1N1CCN(Cc2ccc(F)cc2C(F)(F)F)C(=O)C1=O
631 nM	Cc1nn(CC2CCCCC2)c(C)c1CC(=O)NCc1ccc(F)cc1Cl
501 nM	COc1ccccc1-n1nc(C)c(CC(=O)NCc2ccc(F)cc2Cl)c1C
25.1 nM	Cc1cccnc1N1C[C@@H](C(=O)NCc2ccc(F)c(F)c2Cl)N(C)C1=O
31.6 nM	O=C(NCc1cccc(C(F)(F)F)c1Cl)C1CC(=O)N(C2CC2)C1 (stereo not given)
50.1 nM	O=C(NCc1cccc(C(F)(F)F)c1Cl)[C@H]1CCC(=O)N1Cc1cccnc1
25.1 nM	CCCc1nnc2n1CCN(C(=O)c1cccc(C(F)(F)F)c1Cl)C2
15.8 nM	CN1C[C@@H](C(=O)NCc2ccc(Cl)cc2Cl)N(CC(F)F)C1=O
126 nM	O=C1C(=O)N(c2ccccc2-c2ccccc2)CCN1Cc1ccc(F)cc1Cl
398 nM	Cc1cccc(N2C[C@@H](C(=O)NCc3ccc(F)cc3Cl)N(C)C2=O)n1
79.4 nM	Cc1ncccc1-n1nc(C)c(CC(=O)NCc2ccc(F)cc2Cl)c1C
3.16 nM	CN1C(=O)N(CC2CC2)CC1C(=O)NCc1ccc(Cl)cc1Cl (stereo not given)
251 nM	COc1ccc(-n2nc(C)c(CC(=O)NCc3ccc(F)cc3Cl)c2C)cn1
15.8 nM	O=C(c1cccc(C(F)(F)F)c1Cl)N1CCn2c(nnc2N2CCCC2)C1
126 nM	O=C(c1cccc(Cl)c1Cl)N1CCN(c2ccc(Cl)cc2)C(=O)C1
631 nM	Cc1nn(C(C)C)c(C)c1CC(=O)NCc1ccc(F)cc1Cl
158 nM	Cc1nn(CCN)c(C)c1CC(=O)NCc1ccc(F)cc1Cl
39.8 nM	CCN1C(=O)CC[C@H]1C(=O)NCc1ccc(F)cc1C(F)(F)F
12.6 nM	O=C(c1ccc(F)c(C(F)(F)F)c1)N1CCn2c(nnc2-c2cnccn2)C1
251 nM	CCN1C(=O)CC[C@H]1C(=O)NCc1ccc(Cl)c(Cl)c1

IC50	Compound
12.6 nM	CN1C(=O)N(c2cccnc2)CC1C(=O)NCc1cccc(C(F)(F)F)c1Cl (stereo not given)
126 nM	CCN1CC(C(=O)NCc2ccc(Cl)cc2Cl)CC1=O (stereo not given)
158 nM	CC(C)c1ccnc(N2C[C@@H](C(=O)NCc3ccc(Cl)cc3Cl)N(C)C2=O)n1
7.94 nM	CN1C(=O)N(c2cn(C)cn2)C[C@H]1C(=O)NCc1ccc(Cl)cc1Cl
501 nM	O=C1C(=O)N(c2cccc3ncccc23)CCN1Cc1ccc(F)cc1Cl
631 nM	CCN1[C@H](C(=O)NCc2ccc(F)cc2Cl)CCCS1(=O)=O
5.01 nM	O=C(c1ccc(F)cc1Cl)N1CCn2c(nnc2-c2cnccn2)C1
15.8 nM	CN1C(=O)N(c2nccc(C(F)(F)F)n2)C[C@H]1C(=O)NCc1cccc(C(F)(F)F)c1Cl
31.6 nM	O=C(c1ccc(Cl)c(C(F)(F)F)c1)N1CCn2c(nnc2-c2cnccn2)C1
126 nM	Cc1ccc(Cl)cc1CNC(=O)Cc1c(C)nn(-c2ccccc2)c1C
31.6 nM	CN1[C@H](C(=O)NCc2ccc(Cl)cc2Cl)CCS1(=O)=O
251 nM	CN1[C@H](C(=O)NCc2ccc(Cl)cc2Cl)CCCS1(=O)=O
100 nM	O=C(c1ccc(F)c(Cl)c1F)N1CCN(c2ccc(F)cc2Cl)C(=O)C1
63.1 nM	COc1c(Cl)cccc1N1CCN(Cc2ccc(F)cc2Cl)C(=O)C1=O
15.8 nM	O=C1C(=O)N(c2ccccc2C(F)(F)F)CCN1Cc1ccc(F)cc1Cl
25.1 nM	Cc1ccc(N2C[C@@H](C(=O)NCc3ccc(Cl)cc3Cl)N(C)C2=O)cn1
3.16 nM	CN1C(=O)N(c2ncccn2)CC1C(=O)NCc1cccc(C(F)(F)F)c1Cl (stereo not given)
158 nM	CN1CC(C(=O)NCc2ccc(Cl)cc2Cl)CC1=O (stereo not given)
100 nM	O=C(NCc1cccc(C(F)(F)F)c1Cl)[C@H]1CCC(=O)N1C1CCCC1
1000 nM	O=C1C(=O)N(c2cccc3cccnc23)CCN1Cc1ccc(F)cc1Cl
251 nM	O=C(NCc1cccc(C(F)(F)F)c1Cl)C1COCC(=O)N1Cc1ccccc1 (stereo not given)
25.1 nM	Cc1cc(Cl)ccc1CNC(=O)[C@@H]1CCC(=O)N1C
39.8 nM	Cn1ncc(I)c1CC(=O)NCc1ccc(Cl)cc1Cl
200 nM	CCN1[C@H](C(=O)NCc2ccc(Cl)cc2Cl)CCCS1(=O)=O
79.4 nM	O=C(c1cccc(C(F)(F)F)c1Cl)N1CCn2c(nc(C(F)(F)F)c2-c2ccc(F)cc2)C1

IC50	Compound
3.16 nM	O=C(c1ccc(Cl)cc1Cl)N1CCn2c(nnc2-c2cnccn2)C1
79.4 nM	CC(C)CN1CC(C(=O)NCc2ccc(Cl)cc2Cl)CC1=O (stereo not given)
200 nM	O=C1CN(C(=O)c2cccc(C(F)(F)F)c2Cl)CCN1CC1CCC1
251 nM	Cc1nn(Cc2ccccc2N(C)C)c(C)c1CC(=O)NCc1ccc(F)cc1Cl
100 nM	O=C1C(=O)N(c2ccccc2-n2cccc2)CCN1Cc1ccc(F)cc1Cl
398 nM	Cc1ccc(N2C[C@@H](C(=O)NCc3ccc(Cl)cc3Cl)N(C)C2=O)nn1
7.94 nM	Cc1ccc(C)c(N2CCN(Cc3ccc(F)cc3Cl)C(=O)C2=O)c1
316 nM	O=C1CN(C(=O)c2cccc(C(F)(F)F)c2Cl)CCN1Cc1ccncc1
5.01 nM	O=C(c1cccc(C(F)(F)F)c1Cl)N1CCn2c(nc(C(F)(F)F)c2Br)C1
39.8 nM	O=C(c1ccc(Cl)cc1Cl)N1CCn2c(nc(Cl)c2Cl)C1
501 nM	CC(C)N1[C@H](C(=O)NCc2ccc(F)c(F)c2F)CCS1(=O)=O
100 nM	O=C(c1ccc(Cl)cc1Cl)N1CCn2c(nnc2-c2ccc(F)cc2F)C1
631 nM	O=C(c1cccc(C(F)(F)F)c1Cl)N1CCn2c(-c3cccc(C(F)(F)F)c3Cl)cnc2C1
31.6 nM	CN1C(=O)N(C2CCNCC2)CC1C(=O)NCc1cccc(C(F)(F)F)c1Cl (stereo not given)
3.16 nM	CCN1C(=O)CC[C@H]1C(=O)NCc1cccc(C(F)(F)F)c1C#N
501 nM	Cc1cnccc1N1CCN(Cc2ccc(F)cc2Cl)C(=O)C1=O
50.1 nM	Cc1ccc(N2CCOCC2)c(N2CCN(Cc3ccc(F)cc3Cl)C(=O)C2=O)c1
15.8 nM	CN1C(=O)N(c2cnccn2)C[C@H]1C(=O)NCc1cccc(C(F)(F)F)c1Cl
50.1 nM	Cc1ncccc1N1C[C@@H](C(=O)NCc2ccc(F)cc2Cl)N(C)C1=O
15.8 nM	O=C(c1ccc(Cl)cc1Cl)N1CCn2c(nnc2-c2ccc(F)cc2)C1
6.31 nM	CN1C(=O)CC[C@H]1C(=O)NCc1cccc(C(F)(F)F)c1C#N
50.1 nM	O=C1C(=O)N(c2cccc3c2CCCC3)CCN1Cc1ccc(F)cc1Cl
126 nM	Cc1ccccc1N1CCN(Cc2ccccc2Cl)C(=O)C1=O
316 nM	Cc1nn(Cc2ccncc2)c(C)c1CC(=O)NCc1ccc(F)cc1Cl
126 nM	CN1C(=O)c2ccccc2C1C(=O)NCc1ccc(Cl)cc1Cl (stereo not given)

IC50	Compound
31.6 nM	CC(C)c1ccccc1N1CCN(C(=O)c2ccc(F)cc2Cl)CC1=O
5.01 nM	O=C(c1cccc(Cl)c1Cl)N1CCN(c2cc(N3CCOCC3)ccc2Cl)C(=O)C1
100 nM	Cc1c(OCCN2CCOCC2)cccc1N1CCN(Cc2ccc(F)cc2Cl)C(=O)C1=O
100 nM	CN1C(=O)CC(C)(C)C1C(=O)NCc1cccc(C(F)(F)F)c1Cl (stereo not given)
20 nM	CN1C(=O)N(c2ccc(F)nc2)C[C@H]1C(=O)NCc1ccc(Cl)cc1Cl
7.94 nM	O=C1C(=O)N(c2ccccc2I)CCN1Cc1ccc(F)cc1Cl
5.01 nM	Cn1ccc(-c2nnc3n2CCN(C(=O)c2cccc(C(F)(F)F)c2Cl)C3)n1
20 nM	CC(C)N1C(=O)CC[C@H]1C(=O)NCc1cccc(Cl)c1Cl
63.1 nM	CN1C(=O)CC[C@@H]1C(=O)NCc1cccc(Cl)c1Cl
79.4 nM	Cc1ccc(N2CCCC2)cc1N1CCN(C(=O)c2cccc(C(F)(F)F)c2Cl)CC1=O
50.1 nM	Cc1cc(F)ccc1N1CCN(C(=O)c2cccc(Cl)c2Cl)CC1=O
5.01 nM	CN1C(=O)N(CC2CCC2)CC1C(=O)NCc1ccc(Cl)cc1Cl (stereo not given)
31.6 nM	Cc1ccc(N2C[C@@H](C(=O)NCc3ccc(F)c(F)c3Cl)N(C)C2=O)cn1
50.1 nM	CCN1[C@H](C(=O)NCc2cccc(Cl)c2C)CCS1(=O)=O
501 nM	CC(C)N1[C@H](C(=O)NCc2ccc(Cl)cc2Cl)CCCS1(=O)=O
31.6 nM	CN1C[C@@H](C(=O)NCc2ccc(F)c(F)c2F)N(C)C1=O
200 nM	Cc1c(F)ccc(N2CCN(Cc3ccc(F)cc3Cl)C(=O)C2=O)c1C
2.51 nM	O=C(c1cccc(C(F)(F)F)c1Cl)N1CCn2c(nc(Cl)c2Br)C1
15.8 nM	CN1C[C@@H](C(=O)NCc2ccc(Cl)cc2Cl)N(CC(F)(F)F)C1=O
1.58 nM	O=C(c1ccc(F)c(Cl)c1Cl)N1CCn2c(nnc2-c2ccc(F)cn2)C1
63.1 nM	O=C(NCc1ccc(Cl)cc1Cl)[C@H]1CCC(=O)N1Cc1cccnc1
12.6 nM	O=C(c1ccc(F)cc1Cl)N1CCn2c(nnc2-c2ccccc2)C1
12.6 nM	CN1C(=O)N(c2ccnc(F)c2)C[C@H]1C(=O)NCc1ccc(F)c(F)c1Cl
12.6 nM	O=C(NCc1cccc(Cl)c1Cl)[C@@H]1CCC(=O)N1C1CCC1
158 nM	COc1ccccc1-c1nnc2n1CCN(C(=O)c1ccc(F)cc1Cl)C2
